The record followed here is ChEMBL document CHEMBL1153674, “Synthesis and incorporation of 2-amino acid conjugated nucleotides into ribozymes” (Bioorg Med Chem Lett, 1995).

As a reminder, the half-life is how long it takes for the measured level to halve.

The nature of the series: Half-life was determined. It is filed as ADME. The following applies: human.
With `O=C(NCCCC[C@@H](NC(=O)OCC1c2ccccc2-c2ccccc21)C(=O)NC1C(O)C(CO)OC1n1ccc(=O)[nH]c1=O)OCC1c2ccccc2-c2ccccc21` (some centres undefined), the half-life is 1 min.
The result for `O=C(C[C@@H](NC(=O)OCC1c2ccccc2-c2ccccc21)C(=O)NC1C(O)C(CO)OC1n1ccc(=O)[nH]c1=O)OCc1ccccc1` (some centres undefined) reads 1 min; that for `N[C@@H]1[C@H](O)[C@@H](CO)O[C@H]1n1ccc(=O)[nH]c1=O`, 1.5 min; that for `C[C@@H](NC(=O)OCC1c2ccccc2-c2ccccc21)C(=O)NC1C(O)C(CO)OC1n1ccc(=O)[nH]c1=O` (some centres undefined), 1.5 min.
Molecule `COc1ccc(C(OCC2OC(n3ccc(=O)[nH]c3=O)C(NC(=O)[C@@H](C)NC(=O)OCC3c4ccccc4-c4ccccc43)C2O)(c2ccccc2)c2ccc(OC)cc2)cc1` (some centres undefined) displayed a half-life of 13 min.
The result for `COc1ccc(C(OCC2OC(n3ccc(=O)[nH]c3=O)C(NC(=O)[C@H](NC(=O)OCC3c4ccccc4-c4ccccc43)c3ccccc3)C2O)(c2ccccc2)c2ccc(OC)cc2)cc1` (some centres undefined) reads 3 min; that for `COc1ccc(C(OCC2OC(n3ccc(=O)[nH]c3=O)C(NC(=O)[C@@H](CCCCNC(=O)OCC3c4ccccc4-c4ccccc43)NC(=O)OCC3c4ccccc4-c4ccccc43)C2O)(c2ccccc2)c2ccc(OC)cc2)cc1` (some centres undefined), 11.5 min.
The result for `COc1ccc(C(OCC2OC(n3ccc(=O)[nH]c3=O)C(NC(=O)[C@@H](CC(=O)OCc3ccccc3)NC(=O)OCC3c4ccccc4-c4ccccc43)C2O)(c2ccccc2)c2ccc(OC)cc2)cc1` (some centres undefined) reads 8 min; that for `O=C(N[C@@H](C(=O)NC1C(O)C(CO)OC1n1ccc(=O)[nH]c1=O)c1ccccc1)OCC1c2ccccc2-c2ccccc21` (some centres undefined), 2 min.
